Measured values from patent publication US20250213719A1, “MAGNETIC NANOPARTICLES AND METHODS OF DRUG RELEASE” (University of Notre Dame du Lac, priority 2022, published 2025).
“And” between values parts separate entries of the source, which are not always exact repeats. Identical values can stand only once. Like-named read-outs stand apart in the source and are kept apart here.

Key:
Format in all cases: cell-based
[1] = system: PC-3 prostate cancer cells; assay: Live/dead cell viability assay; details: 500 nM Dox, free or released from Dox-MagSiNs by AC magnetic field, hydrochloride
Method: (§1) The media in each well of the chamber slides was carefully aspirated, and the wells were rinsed twice with 400 μL of 1×PBS. The cells were incubated with Ethidium-homodimer Ill dye and Calcein-AM dye mix at manufacturer recommended concentrations (Life-technologies), and the slides were incubated for 30 minutes in the cell incubator, in the dark. After incubation, the wells were rinsed twice with 400 μL of 1×PBS. Lastly, 300 μL of 4% buffered parafomaldehyde was added to each well, and the slides were taken to be imaged with a NikonU inverted fluorescent microscope with a 10× lens using a standard FITC/RITC green and red fluorescent filter cubes.
(§2) Viable cell populations of treated and untreated control cancer cell lines and treated and untreated normal cell lines were determined at the end of each run using a calcein-AM/propidium iodide assay to determine total cells and viable cell populations. The calcein-AM assay is based on the conversion of the cell permeant non-fluorescent calcein-AM dye to the fluorescent calcein dye by intracellular esterase activity in live cells. […] When PI does gain access to nucleic acids and intercalates, its fluorescence increases dramatically and is therefore used to identify dead cells. Calcein-Am and PI can be used separately or together to assess cellular viability or cell death, respectively.
(§3) In this study, for each sample set (control group or test group), the total number of cells with green fluorescence and the total number of cells with red fluorescence were counted as separate datasets. […] For each sample set, the percent dead-cells and percent live-cells was calculated. The percent live-cells was used as a measure of viability. A paired t-test under the assumption of comparing two-samples with equal variances and a >=0.05 was used to determine the statistical significance of the test-groups in comparison to the control groups.
(§4) A unidirectional magnetic field of 30-50 Gauss and an alternating magnetic field of 100 Hz, 30-50 Gauss were used for these experiments.

[2] = system: A2780 ovarian cancer cells; assay: Live/dead cell viability assay; details: free or released from Dox-MagSiNs by AC magnetic field
Method: as §1, §2, §3, §4

HUVEC cells = assay: Live/dead cell viability assay; details: free or released from Dox-MagSiNs by AC magnetic field, permanent magnet 24 h then AC field 10 h, assay at 48 h
Method: as §1, §2, §3, §4

[3] = system: MDA-MB-231 triple-negative breast cancer cells; details: free or released from Dox-MagSiNs by AC magnetic field
Method: as §1
Viable cell populations of treated and untreated control cancer cell lines and treated and untreated normal cell lines were determined at the end of each run using a calcein-AM/propidium iodide assay to determine total cells and viable cell populations. […] When PI does gain access to nucleic acids and intercalates, its fluorescence increases dramatically and is therefore used to identify dead cells. […]
In this study, for each sample set (control group or test group), the total number of cells with green fluorescence and the total number of cells with red fluorescence were counted as separate datasets. […] For each sample set, the percent dead-cells and percent live-cells was calculated. […]

COc1cccc2c1C(=O)c1c(O)c3c(c(O)c1C2=O)C[C@@](O)(C(=O)CO)C[C@@H]3O[C@H]1C[C@H](N)[C@H](O)[C@H](C)O1.Cl [Dox·HCl, doxorubicin hydrochloride]
cell death [1]: 100% | cell death ([1]; listed as Dox): 100% and > 95% | cell death ([2]; 20 nM Dox): > 20% | cell death ([2]; 500 nM Dox, hydrochloride): 83% | cell death ([2]; 500 nM Dox, listed as Dox, hydrochloride): 83% and 80-85% | cell death (HUVEC cells; 20 nM Dox·HCl): 100% | cell death (HUVEC cells; 500 nM Dox·HCl): 100% | cell death ([3]; 20 nM Dox): insignificant cell death | cell death ([3]; 500 nM Dox): 4%
